Data from patent US11427531B2, “Modulators of potassium ion and TRPV1 channels and uses thereof” (Ramot at Tel-Aviv University Ltd., priority 2017, dated 2022).
Read-outs that look alike come from different tables or passages of the source.

How the values were obtained:
[1] = test system: DRG neuron spike discharge triggered by activation of TRPV1 channels by capsaicin; test: Capsaicin-evoked DRG neuron spike discharge; type: cell-based
Protocol: (§1) For current-clamp recordings in DRG neurons, the patch pipettes were filled with (in mM): 135 KCl, 1 K2ATP, 1 MgATP, 2 EGTA, 1.1 CaCl2, 5 glucose (free [Ca^2+]i=87 nM), 10 HEPES, adjusted with KOH at pH 7.4 (315 mOsm). The external solution contained (in mM): 150 NaCl, 2.5 KCl, 2 CaCl2, 2 MgCl2, 15 glucose, 10 HEPES, adjusted with NaOH at pH 7.4 (325 mOsm). Drug exposure was evoked by rapid application using a fast perfusion system (AutoMate Scientific).
The dual targeting and the synergistic effect of NH91 is further illustrated in FIGS. 17A-B and 18A-B, by its effect on the DRG neuron spike discharge triggered by the activation of TRPV1 channels by 1 μM capsaicin.

[2] = target: T1, recombinant Kv7.2/3 channels (Homo sapiens, UniProt O43525+O43526); test: Whole-cell patch clamp of recombinant Kv7.2/3 currents in transfected CHO cells; type: cell-based; details: for V50 (parameter of potency for Kv7.2/3 At 5 μM): compound at 5 μM, N = 5-12; for EC50: N = 5-10; for increase of the amplitude of recombinant Kv7.2/3 currents: 5 μM compound, at −40 mV, CHO cells
T1 construct: expressed in transfected cells; host or cells: CHO cells
Protocol: Chinese hamster ovary CHO cells were grown in Dulbecco's modified Eagle's medium supplemented with 2 mM glutamine, 10% fetal calf serum, and antibiotics. In brief, 40,000 cells seeded on poly-D-lysine-coated glass coverslips (13 mm in diameter) in a 24-multiwell plate were transfected with pIRES-CD8 (0.3 μg) as a marker for transfection with 0.5 μg Kv7.2 and 0.5 μg Kv7.3. Transfection was performed using 3.6 μl of X-tremeGENE 9 (Roche) according to the manufacturer's protocol. For electrophysiology, transfected cells were visualized approximately 40 h after transfection, using the anti-CD8 antibody coated beads method.
(§2) For Kv7.2 potassium current recordings, the patch pipettes were pulled from borosilicate glass (Warner Instrument Corp) with a resistance of 3-7 MΩ, and were filled with (in mM): 130 KCl, 5 Mg ATP, 5 EGTA, 10 HEPES, pH 7.3 (adjusted with KOH), and sucrose was added to adjust osmolarity to 290 mOsmol. The external solution contained (in mM): 140 NaCl, 4 KCl, 1.2 MgCl2, 1.8 CaCl2, 11 glucose, 5.5 HEPES, pH 7.3 (adjusted with NaOH), and sucrose was added to adjust osmolarity to 310 mOsmol. […] For TRPV1 current recordings, the solutions were the same as those used for Kv7.2, except that the extracellular solution contained no CaCl2 to limit desensitization and included 1 mM EGTA and 1 mM MgCl2.
Chinese hamster ovary CHO cells were grown in Dulbecco's modified Eagle's medium supplemented with 2 mM glutamine, 10% fetal calf serum, and antibiotics. In brief, 40,000 cells seeded on poly-D-lysine-coated glass coverslips (13 mm in diameter) in a 24-multiwell plate were transfected with pIRES-CD8 (0.3 μg) as a marker for transfection with 0.5 μg of Kv7.2 and Kv7.3 cDNA plasmids. Transfection was performed using 3.6 μl of X-tremeGENE 9 (Roche) according to the manufacturer's protocol. For electrophysiology, transfected cells were visualized approximately 40 h after transfection, using the anti-CD8 antibody coated beads method. Recordings were performed using the whole cell configuration of the patch clamp technique. Signals were amplified using an Axopatch 200B patch-clamp amplifier (Axon Instruments), sampled at 5 kHz and filtered at 2.4 kHz via a four pole Bessel low pass filter. Data were acquired using pClamp 10.5 software in conjunction with a DigiData 1440A interface. The patch pipettes were pulled from borosilicate glass (Harvard Apparatus) with a resistance of 3-7 megaohms. The intracellular pipette solution contained 130 mM KCl, 5 mM K2-ATP, 5 mM EGTA (or 5 mM BAPTA when indicated), 10 mM HEPES, pH 7.3 (adjusted with KOH), CaCl2 (as needed for different values of free Ca2+ concentration according to MAXCHELATOR software, with sucrose added to adjust osmolarity to 290 mosmol. The external solution contained 140 mM NaCl, 4 mM KCl, 1.8 mM CaCl2, 1.2 mM MgCl2, 11 mM glucose, 5.5 mM HEPES, adjusted with NaOH to pH 7.3 (310 mOsM). Series resistances were compensated (75-90%) and periodically monitored. Data analysis was performed using the Clampfit program (pClamp 10.5; Axon Instruments), Microsoft Excel (Microsoft, Redmond, Wash.), and Prism 5.0 (GraphPad Software, Inc., San Diego, Calif.). Leak subtraction was performed off-line, using the Clampfit program of the pClamp 10.5 software.
The normalized conductance was plotted as a function of the test voltages, for cells in the absence and presence of the drug. Chord conductance (G) was calculated by using the following equation: G=I/(V−Vrev), where I corresponds to the current amplitude measured at the end of the pulse, and Vrev is the calculated reversal potential assumed to be −90 mV in CHO cells. G was estimated at various test voltages (V) and then normalized to a maximal conductance value, Gmax. Activation curves were fitted by one Boltzmann distribution: G/Gmax=1/{1+exp[(V50−V)/s]}, where V50 is the voltage at which the current is half-activated and s is the slope factor.

[3] = test system: nociceptive dorsal root (DRG) sensory neurons; test: Current-clamp recording of evoked spike discharge in DRG neurons; type: cell-based, rat
Protocol: Inhibition of the evoked spike discharge of nociceptive dorsal root (DRG) sensory neurons was tested as follows:
as §1

[4] = target: T2, recombinant TRPV1 channel (Homo sapiens, UniProt Q8NER1); test: Whole-cell recording of capsaicin-activated recombinant TRPV1 currents in transfected CHO cells; type: cell-based
T2 construct: expressed in transfected cells; host or cells: CHO cells
Protocol: as §2
Inhibition of recombinant TRPV1 channel was tested as described in Example 2 hereinabove.
TRPV1 whole-cell currents were activated by exposing transfected CHO cells to 0.5 μM capsaicin at a holding potential of −60 mV.
FIG. 9 presents the effect of 5 μM NH66 on recombinant TRPV1 currents activated by 0.1 μM capsaicin (CAP). In FIG. 9 are shown the TRPV1 currents evoked by application of 0.1 μM capsaicin to transfected CHO cells. In the upper panel are shown the currents only evoked by application of 0.1 μM capsaicin; in the middle panel, are shown the currents first evoked by application of 0.1 μM capsaicin+5 μM NH66, then by 0.1 μM capsaicin only.

[5] = target: cardiac Herg channel (Homo sapiens, UniProt Q12809); test: Cardiac channel Herg current recordings
Protocol: Cardiac channel Herg current recordings were performed as follows:
Cells were held at −90 mV and stepped for 1.5 s from −70 mV to +30 mV in 10 mV increments and repolarized at −60 mV.

[6] = test system: inward voltage-dependent Ca2+ and Na+ current in DRG neurons; test: Inward voltage-dependent Ca2+ and Na+ current in DRG neurons; type: cell-based; details: 5 μM
[7] = N = 5-10, Retigabine: No effect at 30, read-out: IC50 on TRPV1
[8] = Rattus norvegicus, Neuron, N = 5-10, read-out: IC50 on inhibition of evoked spike discharge in DRG sensory neurons
[9] = DRG neuron, rat DRG neurons, read-out: IC50 of inhibition of evoked spike discharge of nociceptive DRG sensory neurons

T2 sequence (Q8NER1 whole entry): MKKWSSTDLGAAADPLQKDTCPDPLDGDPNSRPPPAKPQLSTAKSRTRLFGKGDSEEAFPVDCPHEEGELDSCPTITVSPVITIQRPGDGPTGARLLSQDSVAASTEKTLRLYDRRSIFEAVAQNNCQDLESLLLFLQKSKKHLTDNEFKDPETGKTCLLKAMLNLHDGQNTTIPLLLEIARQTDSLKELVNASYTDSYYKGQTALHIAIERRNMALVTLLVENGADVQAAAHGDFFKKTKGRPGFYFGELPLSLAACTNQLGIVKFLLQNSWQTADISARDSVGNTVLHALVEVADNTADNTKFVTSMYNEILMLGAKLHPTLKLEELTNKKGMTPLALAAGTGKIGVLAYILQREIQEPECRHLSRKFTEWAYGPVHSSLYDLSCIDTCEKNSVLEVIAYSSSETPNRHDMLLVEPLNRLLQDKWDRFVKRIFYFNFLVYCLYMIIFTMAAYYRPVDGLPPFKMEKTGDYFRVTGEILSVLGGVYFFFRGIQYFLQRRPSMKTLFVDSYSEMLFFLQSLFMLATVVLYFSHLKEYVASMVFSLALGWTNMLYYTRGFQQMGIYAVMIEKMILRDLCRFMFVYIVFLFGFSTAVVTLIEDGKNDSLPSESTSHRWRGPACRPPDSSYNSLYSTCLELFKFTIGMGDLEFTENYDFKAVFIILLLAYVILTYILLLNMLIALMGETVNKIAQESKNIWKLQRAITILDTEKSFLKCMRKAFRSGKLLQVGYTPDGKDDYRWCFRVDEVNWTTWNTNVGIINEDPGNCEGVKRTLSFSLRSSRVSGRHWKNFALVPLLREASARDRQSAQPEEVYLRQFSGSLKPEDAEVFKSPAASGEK
Chain of cardiac Herg channel (Q12809 whole entry): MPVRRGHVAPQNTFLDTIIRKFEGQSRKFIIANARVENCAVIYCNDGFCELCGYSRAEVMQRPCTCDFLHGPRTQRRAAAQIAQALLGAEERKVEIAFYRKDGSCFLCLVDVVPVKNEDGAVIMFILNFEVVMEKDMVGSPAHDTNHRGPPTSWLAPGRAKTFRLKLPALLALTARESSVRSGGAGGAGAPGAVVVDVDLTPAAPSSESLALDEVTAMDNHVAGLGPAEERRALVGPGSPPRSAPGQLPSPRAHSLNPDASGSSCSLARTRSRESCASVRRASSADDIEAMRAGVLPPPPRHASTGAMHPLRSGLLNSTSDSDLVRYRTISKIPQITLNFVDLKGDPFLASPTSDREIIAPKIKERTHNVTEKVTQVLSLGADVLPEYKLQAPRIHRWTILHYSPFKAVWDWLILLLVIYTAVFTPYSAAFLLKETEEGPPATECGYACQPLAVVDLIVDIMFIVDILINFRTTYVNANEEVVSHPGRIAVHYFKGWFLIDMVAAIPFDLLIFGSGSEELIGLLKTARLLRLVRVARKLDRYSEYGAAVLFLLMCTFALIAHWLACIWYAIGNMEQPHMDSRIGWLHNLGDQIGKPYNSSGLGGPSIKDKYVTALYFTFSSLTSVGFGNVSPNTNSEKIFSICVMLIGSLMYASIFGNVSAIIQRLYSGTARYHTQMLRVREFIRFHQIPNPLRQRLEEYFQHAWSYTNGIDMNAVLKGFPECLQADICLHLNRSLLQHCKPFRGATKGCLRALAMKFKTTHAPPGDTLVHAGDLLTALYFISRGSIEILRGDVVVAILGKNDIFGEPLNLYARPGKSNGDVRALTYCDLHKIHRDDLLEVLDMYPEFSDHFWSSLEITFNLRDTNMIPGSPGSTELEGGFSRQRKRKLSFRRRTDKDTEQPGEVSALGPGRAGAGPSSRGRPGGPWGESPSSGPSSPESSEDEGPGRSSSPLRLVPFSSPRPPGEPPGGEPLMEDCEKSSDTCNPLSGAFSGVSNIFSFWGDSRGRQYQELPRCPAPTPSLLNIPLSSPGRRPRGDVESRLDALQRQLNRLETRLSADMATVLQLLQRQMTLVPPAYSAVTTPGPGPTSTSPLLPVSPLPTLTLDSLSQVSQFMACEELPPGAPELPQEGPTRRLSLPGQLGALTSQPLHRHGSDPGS

SMILES: CC(=O)Nc1nc2c(Oc3cc(-c4ccc(C(F)(F)F)cc4)ncn3)cccc2s1 [AMG 517, reference compound]
- inhibition at 0.1 µM ([1]; DRG neuron, read-out: inhibition of capsaicin-evoked DRG spikes): 42%

SMILES: O=C(Cc1cc([N+](=O)[O-])cc([N+](=O)[O-])c1Nc1c(Cl)cc([N+](=O)[O-])cc1Cl)NCCO [NH29, reference compound]
- V50 (parameter of potency for Kv7.2/3 At 5 μM) [2]: −27.4 mV
- IC50 ([3]; Rattus norvegicus, Neuron, read-out: IC50 on inhibition of evoked spike discharge in DRG sensory neurons): 18000 nM
- IC50 [4, 7]: 4200 nM
- IC50 [5]: 5000 nM

SMILES: O=C(Cc1ccc(Nc2c(Cl)cc(C(F)(F)F)cc2Cl)cc1)NCCO [NH34, reference compound]
- EC50 [2]: 17500 nM
- V50 (parameter of potency for Kv7.2/3 At 5 μM) [2]: −28.1 mV
- IC50 [3, 8]: 25000 nM
- IC50 [4, 7]: 55000 nM
- IC50 [5]: 35000 nM

SMILES: O=C(Cc1cc(Nc2c(Cl)cc(Cl)cc2Cl)ccc1F)NCCO [NH43, reference compound]
- increase of the amplitude of recombinant Kv7.2/3 currents [2]: about 3.5 fold
- EC50 [2]: 600 nM
- V50 (parameter of potency for Kv7.2/3 At 5 μM) [2]: −42.0 mV
- IC50 [3, 9]: 300 nM
- IC50 [3, 8]: 300 nM
- IC50 [4, 7]: 400 nM
- IC50 [5]: > 60000 nM

SMILES: CC(C)(O)CNC(=O)Cc1cc(Nc2c(Cl)cc(Cl)cc2Cl)ccc1F [NH66]
- increase of the amplitude of recombinant Kv7.2/3 currents [2]: about 3.5 fold
- EC50 [2]: 1000 nM
- V50 (parameter of potency for Kv7.2/3 At 5 μM) [2]: −30.3 mV
- IC50 [3, 9]: 500 nM
- IC50 [3, 8]: 500 nM
- IC50 ([4]; currents activated by 0.1 μM capsaicin, read-out: IC50 of inhibition of recombinant TRPV1 currents): 300 nM
- IC50 [5]: > 60000 nM

SMILES: CC(C)(CO)CNC(=O)Cc1cc(Nc2c(Cl)cc(Cl)cc2Cl)ccc1F [NH82]
- EC50 [2]: 500 nM
- V50 (parameter of potency for Kv7.2/3 At 5 μM) [2]: −41.1 mV
- IC50 [3, 8]: 500 nM
- IC50 [4, 7]: 400 nM
- IC50 [5]: > 100000 nM

SMILES: CC(C)(O)CCNC(=O)Cc1cc(Nc2c(Cl)cc(Cl)cc2Cl)ccc1F [NH83]
- EC50 [2]: 600 nM
- V50 (parameter of potency for Kv7.2/3 At 5 μM) [2]: −37.3 mV
- effect on DRG evoked spike discharge (in words) [3]: slightly improved activity
- IC50 [3, 8]: 200 nM
- IC50 [4, 7]: 800 nM

SMILES: CC(C)c1cc(Cl)cc(Cl)c1Nc1ccc(F)c(CC(=O)NCC(C)(C)O)c1 [NH91]
- effect on amplitude at −40 mV and voltage-dependence of Kv7.2/3 channels (in words) [2]: potently increase the amplitude left-shift the voltage-dependence of activation
- EC50 [2]: 2000 nM
- V50 (parameter of potency for Kv7.2/3 At 5 μM) [2]: −42.4 mV
- effect on inward voltage-dependent Ca2+ and Na+ current in DRG neurons [6]: did not affect
- effect on DRG evoked spike discharge (in words) [3]: prominently inhibits
- IC50 [3, 8]: 1000 nM
- IC50 [4, 7]: 100 nM
- IC50 [5]: > 60000 nM
- inhibition of capsaicin-evoked DRG spike discharge in the presence of XE991 ([1]; Kv7.2/3 channel blocker XE991 10 μM present, n=11): 50%

SMILES: CC(C)(O)CCNC(=O)Cc1cc(Nc2c(Cl)cc(Cl)cc2C2CC2)ccc1F [NH101]
- effect on amplitude at −40 mV and voltage-dependence of Kv7.2/3 channels (in words) [2]: potently increase the amplitude left-shift the voltage-dependence of activation
- EC50 [2]: 200 nM
- V50 (parameter of potency for Kv7.2/3 At 5 μM) [2]: −67.4 mV
- IC50 [3, 8]: 200 nM
- IC50 [4, 7]: 100 nM
- IC50 [5]: > 50000 nM

SMILES: O=C(Cc1cc(Nc2c(Cl)cc(Cl)cc2Cl)ccc1F)NC1CCC(O)C1 (stereo not shown) [NH110]
- effect on amplitude at −40 mV and voltage-dependence of Kv7.2/3 channels (in words) [2]: potently increase the amplitude left-shift the voltage-dependence of activation
- EC50 [2]: 7300 nM
- V50 (parameter of potency for Kv7.2/3 At 5 μM) [2]: −38.5 mV
- effect on DRG evoked spike discharge (in words) [3]: inhibits
- IC50 [3, 8]: 200 nM

SMILES: CCOC(=O)Nc1ccc(NCc2ccc(F)cc2)cc1N [Retigabine, N-(2-amino-4-(4-fluorobenzylamino)-phenyl)carbamic acid ethyl ester, reference compound]
- V50 (parameter of potency for Kv7.2/3 At 5 μM) [2]: −30.4 mV
- IC50 [3, 8]: 5000 nM
- IC50 on TRPV1 ([4]; N = 5-10, Retigabine: No effect at 30): No effect
- IC50 [5]: > 30000 nM
